Experimental data taken from US20190330224A1, “ACC INHIBITORS AND USES THEREOF” (Gilead Apollo, LLC, priority 2015, published 2019).
In brackets after ≈: the same amount, converted by molar mass. Read-outs that look alike come from different tables or passages of the source.

Key:
Human ACC2 = Human ACC2 (Homo sapiens, UniProt O00763); experiment: In vitro ACC2 inhibition assay (ADP-Glo), human ACC2; type: biochemical; settings: 5 nM ACC2, 20 μM ATP, 20 μM acetyl-CoA
[1] = tested on: Blumeria graminis f sp. hordei; experiment: Foliar protection test, barley powdery mildew control; type: in vivo, Blumeria graminis f sp. hordei on Hordeum vulgare cv. Perry; settings: 168 h, read-out: Barley Powdery Mildew Control at 50 ppm
Protocol: Compounds of the present invention were evaluated in a foliar protection test to determine the ability to control barley powdery mildew. Plants (Hordeum vulgare cv. Perry) were grown for 6 days in 2-inch square pots containing Metromix 200 medium amended with fertilizer. For propagation, plants were maintained in a growth chamber at conditions of 20 to 21° C., 16 hour light cycle, 400 uM of light, 70% humidity, and with sub-irrigation as needed. After inoculation with the pathogen of Blumeria graminis f sp. hordei, plants were kept at conditions of 20 to 22° C., 70% relative humidity, and 200 uM of light to facilitate infection and disease development. At 6 days after planting (1st true leaf fully expanded), the test compounds were dissolved in a solution of 5% acetone and 0.005% Tween 80 surfactant. An atomizer was used for applying the solution onto both sides of the leaves until thoroughly wetted. The amount of the compound applied to the leaves was typically 200, 100, 50, 10, or 2 ppm, but it may vary. At 24 hours after treatment, the plants were moved to a cooler chamber and inoculated by shaking well-colonized, untreated stock plants above the treated plants. This allowed producing a settling cloud of spores and resulting in uniform infection. Efficacy was evaluated in 7 days later by examining leaves for colonization and growth of mildew. Table 5 lists the results of barley powdery mildew control at a compound concentration of 50 ppm or 10 ppm. Compounds having an activity designated as “AA” provided a compound having >85% control of barley powdery mildew; compounds having an activity designated as “A” provided a compound having from 70% to 84% control of barley powdery mildew; compounds having an activity designated as “B” provided a compound having from 50 to 69% control of barley powdery mildew; compounds having an activity designated as “C” provided a compound having from 25 to 49% control of barley powdery mildew; and compounds having an activity designated as “D” provided a compound having <25% control of barley powdery mildew.

[2] = compound concentration 10 ppm, foliar spray, evaluated 7 days after inoculation
Septoria tritici (St) = experiment: Growth inhibition assay of fungal pathogens, St; type: cell-based; settings: Zymoseptoria tritici, read-out: Concentration at 90% Inhibition, St
Protocol: (§1) Compounds of the present invention were evaluated in a growth inhibition assay to determine the ability to control the growth of fungal pathogens, such as Botrtyis cinerea (Bc). Collectotrichum graminicola (Cg), Diplodia maydis (Dm), Fusarium moniliforme (Fm), Fusarium virguliforme (Fv), Phytophthora capsici (Pc), Rhizoctonia solani (Rs), and Septoria tritici (St). Compounds to be tested were dissolved in DMSO at 2.5 mg/ml to produce compound stock solutions (“stocks”). Stocks were diluted with DMSO by a five-fold dilution in a 96-well stock plate, and two sets of final concentrations of 50, 10, and 2 ppm or 2, 0.4, and 0.08 ppm were obtained in vitro. A set of positive controls was also prepared, with various concentrations of Soraphen (2, 0.4, and 0.08 ppm), Metalaxyl (1.1, 0.22, and 0.04 ppm), and Metconazole (2, 0.4, and 0.08 ppm or 0.2, 0.04, and 0.008 ppm) after the five-fold dilutions. Negative controls on each plate included 2% DMSO, water, and a blank (media+2% DMSO). Fungal spores were isolated from previously sub-cultured plates of Botrtyis cinerea (Bc), Collectotrichum graminicola (Cg), Diplodia maydis (Dm), Fusarium moniliforme (Fm), Fusarium virguliforme (Fv), Phytophthora capsici (Pc), and Septoria tritici (St). The isolated spores were diluted to individual concentrations with a 17% V8 liquid media. For Rhizoctonia solani (Rs) and Pythium irregulare, 1.5 mm mycelial plugs were used in place of spores and ¼ Potato Dextrose Broth (PDB) was used for dilution. The spore concentrations and plug sizes were based on growth curves generated at 48 hours for each pathogen. In a second 96-well plate, the spores or mycelial plugs, media, diluted compound solutions, and controls were combined. Once the compound was added, a true final concentration of compound in each well was measured by an OD600 reading, which adjusted for any compound precipitation that might have occurred in the well. Plate readings were repeated at both 24 and 48 hours. The blank negative control was used as a background subtraction. Additional visual ratings were performed at both 24 and 48 hours for checking on precipitation and confirming efficacy. Visual and OD600 ratings of the compounds at 48 hours were compared to the 2% DMSO negative control, and the percent of pathogen growth inhibition was determined based on those values.

Botrtyis cinerea (Bc) = experiment: Growth inhibition assay of fungal pathogens, Bc; type: cell-based; settings: read-out: Concentration at 90% Inhibition, Bc
Protocol: as §1

[3] = tested on: Phytophthora capsici (Pc); experiment: Growth inhibition assay of fungal pathogens, Pc; type: cell-based; settings: read-out: Concentration at 90% Inhibition, Pc
Protocol: as §1

[4] = tested on: Fusarium virguliforme (Fv); experiment: Growth inhibition assay of fungal pathogens, Fv; type: cell-based; settings: read-out: Concentration at 90% Inhibition, Fv
Protocol: as §1

Diplodia maydis (Dm) = experiment: Growth inhibition assay of fungal pathogens, Dm; type: cell-based; settings: Stenocarpella maydis, read-out: Concentration at 90% Inhibition, Dm
Protocol: as §1

Fungal ACC2 = Fungal ACC2 (UniProt Q00955); settings: read-out: Fungal ACC2 (IC50, in vitro ACC2 inhibition)
Fungal ACC2, sequence (Q00955 whole entry): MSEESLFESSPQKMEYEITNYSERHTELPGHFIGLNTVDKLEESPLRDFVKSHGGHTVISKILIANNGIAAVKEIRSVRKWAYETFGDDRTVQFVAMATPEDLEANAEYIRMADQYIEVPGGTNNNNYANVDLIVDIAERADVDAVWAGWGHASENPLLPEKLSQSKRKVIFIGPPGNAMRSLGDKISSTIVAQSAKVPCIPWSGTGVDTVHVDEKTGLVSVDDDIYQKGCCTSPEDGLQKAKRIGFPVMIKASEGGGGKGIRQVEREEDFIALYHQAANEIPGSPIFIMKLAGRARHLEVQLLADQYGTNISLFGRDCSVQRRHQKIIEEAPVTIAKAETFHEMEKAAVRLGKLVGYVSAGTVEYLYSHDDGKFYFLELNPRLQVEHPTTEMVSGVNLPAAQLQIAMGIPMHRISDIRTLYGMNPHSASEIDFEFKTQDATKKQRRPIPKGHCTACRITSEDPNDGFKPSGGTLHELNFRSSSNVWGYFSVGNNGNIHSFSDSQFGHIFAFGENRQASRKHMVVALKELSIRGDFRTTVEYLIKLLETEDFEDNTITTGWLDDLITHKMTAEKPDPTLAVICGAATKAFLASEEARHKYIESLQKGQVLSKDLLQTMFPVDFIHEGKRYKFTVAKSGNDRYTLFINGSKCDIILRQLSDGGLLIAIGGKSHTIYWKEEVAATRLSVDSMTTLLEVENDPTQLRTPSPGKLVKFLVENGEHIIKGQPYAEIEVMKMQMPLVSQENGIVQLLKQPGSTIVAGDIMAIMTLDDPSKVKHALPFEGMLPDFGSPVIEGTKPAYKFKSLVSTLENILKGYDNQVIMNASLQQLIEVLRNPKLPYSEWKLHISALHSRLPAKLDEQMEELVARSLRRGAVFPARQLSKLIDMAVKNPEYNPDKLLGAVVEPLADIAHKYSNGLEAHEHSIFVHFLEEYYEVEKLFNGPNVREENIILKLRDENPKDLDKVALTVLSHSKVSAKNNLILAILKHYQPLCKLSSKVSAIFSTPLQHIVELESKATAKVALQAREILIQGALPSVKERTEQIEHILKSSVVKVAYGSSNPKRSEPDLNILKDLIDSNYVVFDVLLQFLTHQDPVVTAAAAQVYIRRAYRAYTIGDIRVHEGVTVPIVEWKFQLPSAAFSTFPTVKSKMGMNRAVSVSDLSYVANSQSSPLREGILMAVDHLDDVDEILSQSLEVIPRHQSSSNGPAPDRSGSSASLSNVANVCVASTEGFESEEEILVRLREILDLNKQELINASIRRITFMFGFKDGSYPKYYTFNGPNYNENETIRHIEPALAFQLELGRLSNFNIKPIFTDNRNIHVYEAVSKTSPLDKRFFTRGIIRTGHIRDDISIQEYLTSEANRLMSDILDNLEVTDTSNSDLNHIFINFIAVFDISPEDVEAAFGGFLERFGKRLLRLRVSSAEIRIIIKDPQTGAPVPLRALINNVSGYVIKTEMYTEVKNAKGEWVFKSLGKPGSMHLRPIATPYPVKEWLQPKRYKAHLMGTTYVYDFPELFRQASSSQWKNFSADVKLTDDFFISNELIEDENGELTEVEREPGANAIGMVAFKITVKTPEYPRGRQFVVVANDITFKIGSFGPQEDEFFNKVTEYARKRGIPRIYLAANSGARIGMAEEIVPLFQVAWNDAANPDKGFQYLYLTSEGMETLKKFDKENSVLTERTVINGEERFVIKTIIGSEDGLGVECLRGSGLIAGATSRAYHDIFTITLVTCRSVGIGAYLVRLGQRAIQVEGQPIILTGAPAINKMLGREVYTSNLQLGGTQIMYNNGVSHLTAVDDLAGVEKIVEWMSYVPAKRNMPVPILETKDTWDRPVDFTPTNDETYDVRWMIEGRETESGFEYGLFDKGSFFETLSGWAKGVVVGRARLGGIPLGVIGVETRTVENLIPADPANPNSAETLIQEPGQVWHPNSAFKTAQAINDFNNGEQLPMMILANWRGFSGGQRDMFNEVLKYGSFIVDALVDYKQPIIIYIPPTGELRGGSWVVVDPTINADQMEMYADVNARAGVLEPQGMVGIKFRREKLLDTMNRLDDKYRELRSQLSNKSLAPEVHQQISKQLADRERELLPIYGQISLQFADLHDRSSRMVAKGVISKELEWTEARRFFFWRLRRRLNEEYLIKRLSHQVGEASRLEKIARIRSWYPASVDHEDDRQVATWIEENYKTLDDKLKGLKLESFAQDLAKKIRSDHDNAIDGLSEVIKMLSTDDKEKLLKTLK

Rhizoctonia solani (Rs) = experiment: Growth inhibition assay of fungal pathogens, Rs; type: cell-based; settings: read-out: Concentration at 90% Inhibition, Rs
Protocol: as §1

[5] = tested on: Collectotrichum graminicola (Cg); experiment: Growth inhibition assay of fungal pathogens, Cg; type: cell-based; settings: read-out: Concentration at 90% Inhibition, Cg
Protocol: as §1

[6] = tested on: Fusarium moniliforme (Fm); experiment: Growth inhibition assay of fungal pathogens, Fm; type: cell-based; settings: Fusarium verticillioides, read-out: Concentration at 90% Inhibition, Fm
Protocol: as §1

C. krusei ATCC 6258 = experiment: Anti-Fungal Activity Assay (broth microtiter MIC), C. krusei; type: cell-based, Candida krusei; settings: Pichia kudriavzevii, ATCC6258, 48 h, 3 replicates; MIC recorded at 48 h; read-out: MIC C. krusei ATCC 6258
Procedure, shortened: (§2)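 MIC by visual comparison with growth control, read at 48 h (soraphen also at 24 h). Inoculum: colonies from overnight Sabouraud dextrose agar plates at 35° C, suspended in RPMI 1640+MOPS, density from standard curves. Microtiter broth dilution per CLSI M27-A3; compounds from 1 mg/mL DMSO stocks.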

C. albicans ATCC 90028 = experiment: Anti-Fungal Activity Assay (broth microtiter MIC), C. albicans; type: cell-based, Candida albicans; settings: Candida albicans, ATCC90028, 48 h, 3 replicates; MIC recorded at 48 h; read-out: MIC C. albicans ATCC 90028
Procedure, shortened: as §2

[7] = tested on: C. parapsilosis ATCC 22019; experiment: Anti-Fungal Activity Assay (broth microtiter MIC), C. parapsilosis; type: cell-based, Candida parapsilosis; settings: Lodderomyces parapsilosis, ATCC22019, 48 h, 3 replicates; MIC recorded at 48 h; read-out: MIC C. parapsilosis ATCC 22019
Procedure, shortened: as §2

[8] = compound concentration 50 ppm, foliar spray, evaluated 7 days after inoculation

Human ACC2, sequence (O00763 whole entry): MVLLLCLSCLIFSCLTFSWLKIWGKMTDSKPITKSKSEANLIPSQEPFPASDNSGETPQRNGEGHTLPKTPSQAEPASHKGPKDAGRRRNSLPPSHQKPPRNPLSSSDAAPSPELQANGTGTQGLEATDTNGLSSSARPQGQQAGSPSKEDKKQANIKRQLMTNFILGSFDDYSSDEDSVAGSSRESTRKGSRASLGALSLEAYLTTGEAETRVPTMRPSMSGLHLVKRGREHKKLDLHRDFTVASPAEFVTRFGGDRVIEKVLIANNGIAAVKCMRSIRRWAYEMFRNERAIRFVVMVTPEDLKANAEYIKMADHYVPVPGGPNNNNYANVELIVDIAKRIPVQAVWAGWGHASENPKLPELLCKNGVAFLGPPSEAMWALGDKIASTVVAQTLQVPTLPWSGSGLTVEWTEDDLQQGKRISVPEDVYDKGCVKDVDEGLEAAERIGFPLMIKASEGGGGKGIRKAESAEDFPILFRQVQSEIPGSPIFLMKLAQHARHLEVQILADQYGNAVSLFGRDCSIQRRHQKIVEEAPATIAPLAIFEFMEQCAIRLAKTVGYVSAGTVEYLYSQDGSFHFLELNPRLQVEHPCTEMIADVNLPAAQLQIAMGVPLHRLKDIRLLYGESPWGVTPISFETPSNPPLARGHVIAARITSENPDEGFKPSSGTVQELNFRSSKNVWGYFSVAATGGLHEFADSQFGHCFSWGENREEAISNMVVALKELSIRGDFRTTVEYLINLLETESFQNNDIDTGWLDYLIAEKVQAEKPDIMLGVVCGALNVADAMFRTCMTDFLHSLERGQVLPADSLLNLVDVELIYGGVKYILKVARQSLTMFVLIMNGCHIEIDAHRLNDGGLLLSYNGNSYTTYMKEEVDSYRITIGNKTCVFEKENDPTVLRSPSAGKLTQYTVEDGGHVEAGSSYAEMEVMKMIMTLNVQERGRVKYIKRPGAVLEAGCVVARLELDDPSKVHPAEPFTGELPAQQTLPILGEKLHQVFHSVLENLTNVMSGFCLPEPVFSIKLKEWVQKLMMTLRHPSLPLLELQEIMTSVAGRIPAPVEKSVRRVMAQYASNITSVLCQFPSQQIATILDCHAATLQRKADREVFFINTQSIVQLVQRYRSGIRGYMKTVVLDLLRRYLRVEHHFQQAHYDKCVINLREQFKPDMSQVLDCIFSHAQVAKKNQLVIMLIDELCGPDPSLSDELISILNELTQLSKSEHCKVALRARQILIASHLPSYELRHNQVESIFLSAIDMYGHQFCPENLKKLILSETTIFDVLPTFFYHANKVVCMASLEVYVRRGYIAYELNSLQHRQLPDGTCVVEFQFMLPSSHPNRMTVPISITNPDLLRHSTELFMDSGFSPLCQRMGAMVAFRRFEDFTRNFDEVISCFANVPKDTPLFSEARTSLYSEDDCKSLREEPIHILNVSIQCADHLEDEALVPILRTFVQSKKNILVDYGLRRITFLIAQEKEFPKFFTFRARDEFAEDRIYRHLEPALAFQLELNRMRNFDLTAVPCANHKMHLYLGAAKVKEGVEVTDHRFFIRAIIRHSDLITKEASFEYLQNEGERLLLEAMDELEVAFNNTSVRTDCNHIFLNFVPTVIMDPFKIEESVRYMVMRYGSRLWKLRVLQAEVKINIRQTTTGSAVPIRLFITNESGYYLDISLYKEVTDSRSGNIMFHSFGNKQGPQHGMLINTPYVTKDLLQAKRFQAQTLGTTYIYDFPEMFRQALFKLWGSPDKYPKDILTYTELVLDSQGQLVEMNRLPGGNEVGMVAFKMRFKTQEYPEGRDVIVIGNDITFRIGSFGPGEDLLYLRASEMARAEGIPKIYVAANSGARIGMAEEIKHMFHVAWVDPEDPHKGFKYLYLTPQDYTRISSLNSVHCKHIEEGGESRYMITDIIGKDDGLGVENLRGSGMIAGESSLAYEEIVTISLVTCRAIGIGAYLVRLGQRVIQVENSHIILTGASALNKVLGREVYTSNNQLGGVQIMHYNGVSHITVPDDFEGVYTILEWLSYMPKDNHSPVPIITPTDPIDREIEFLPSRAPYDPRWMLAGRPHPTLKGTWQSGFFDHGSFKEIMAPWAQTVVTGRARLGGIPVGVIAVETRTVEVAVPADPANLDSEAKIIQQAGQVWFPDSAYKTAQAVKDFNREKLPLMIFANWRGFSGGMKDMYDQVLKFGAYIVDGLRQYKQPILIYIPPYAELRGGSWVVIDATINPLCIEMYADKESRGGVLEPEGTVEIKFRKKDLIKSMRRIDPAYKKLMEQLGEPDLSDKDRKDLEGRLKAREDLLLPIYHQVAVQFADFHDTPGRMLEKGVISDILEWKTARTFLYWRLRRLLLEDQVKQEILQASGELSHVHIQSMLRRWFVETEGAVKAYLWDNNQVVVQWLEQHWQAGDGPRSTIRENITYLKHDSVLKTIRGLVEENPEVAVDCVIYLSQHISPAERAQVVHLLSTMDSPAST

Structure (SMILES)	IC50 (Human ACC2) [nM]	pest or weed control at 50 ppm ([1]; foliar) [%]	Barley Powdery Mildew Control at 10 ppm [2]	IC90 (Septoria tritici (St); 48 h) [µg/mL]	IC90 (Botrtyis cinerea (Bc); 48 h) [µg/mL]	IC90 ([3]; 48 h) [µg/mL]	IC90 ([4]; 48 h) [µg/mL]	IC90 (Diplodia maydis (Dm); 48 h) [µg/mL]	pest or weed control at 50 ppm [1, 8] [%]	IC90 (Septoria tritici (St); 48 hours) [µg/mL]	IC90 (Botrtyis cinerea (Bc); 48 hours) [µg/mL]	IC90 ([3]; 48 hours) [µg/mL]	IC90 ([4]; 48 hours) [µg/mL]	IC90 (Diplodia maydis (Dm); 48 hours) [µg/mL]	IC90 (Rhizoctonia solani (Rs); 48 hours) [µg/mL]	IC90 ([5]; 48 hours) [µg/mL]	IC90 ([6]; 48 hours) [µg/mL]	MIC (C. krusei ATCC 6258) [µg/mL]	MIC (C. albicans ATCC 90028) [µg/mL]	MIC [7] [µg/mL]	other results
COCCO[C@@H](Cn1c(=O)n([C@H]2CCNC2=O)c(=O)c2c(C)c(-n3nccn3)sc21)c1cc(F)ccc1OC [Compound I-25, 1-((R)-2-(5-fluoro-2-methoxyphenyl)-2-(2-methoxy-ethoxy)ethyl)-5-methyl-3-((S)-2-oxopyrrolidin-3-yl)-6-(2H-1,2,3-triazol-2-yl)thieno[2,3-d]pyrimidine-2,4(1H,3H)-dione]	10 to 100	50 to 69	D (provided a compound having <25% control of barley powdery mildew)	> 50	> 50	> 50	> 50	> 50													IC50 (Fungal ACC2): 2 to 10 nM; IC90 (Rhizoctonia solani (Rs); 48 h): > 50 µg/mL; IC90 ([5]; 48 h): > 50 µg/mL; IC90 ([6]; 48 h): 10 µg/mL (≈ 17.9 µM)
COCCO[C@@H](Cn1c(=O)n([C@@H]2CCNC2=O)c(=O)c2c(C)c(-n3nccn3)sc21)c1cc(F)ccc1OC [Compound I-26, 1-((R)-2-(5-fluoro-2-methoxyphenyl)-2-(2-methoxy-ethoxy)ethyl)-5-methyl-3-((R)-2-oxopyrrolidin-3-yl)-6-(2H-1,2,3-triazol-2-yl)thieno[2,3-d]pyrimidine-2,4(1H,3H)-dione]	2 to 10	70 to 84	D (provided a compound having <25% control of barley powdery mildew)	> 50	10 (≈ 17.9 µM)	> 50	10 (≈ 17.9 µM)	> 50													IC50 (Fungal ACC2): 0.7 to 2 nM; IC90 (Rhizoctonia solani (Rs); 48 h): > 50 µg/mL; IC90 ([5]; 48 h): > 50 µg/mL; IC90 ([6]; 48 h): 2 µg/mL (≈ 3.58 µM)
COc1ccc(F)cc1[C@H](Cn1c(=O)n([C@H]2CCCN(C(C)C)C2=O)c(=O)c2c(C)c(-n3nccn3)sc21)OCCO [Compound I-74, 1-((R)-2-(5-fluoro-2-methoxyphenyl)-2-(2-hydroxy-ethoxy)ethyl)-3-((S)-1-isopropyl-2-oxopiperidin-3-yl)-5-methyl-6-(2H-1,2,3-triazol-2-yl)thieno[2,3-d]pyrimidine-2,4(1H,3H)-dione]	10 to 100		D (provided a compound having <25% control of barley powdery mildew)						70 to 84	> 50	2 (≈ 3.33 µM)	> 50	2 (≈ 3.33 µM)	10 (≈ 16.6 µM)	2 (≈ 3.33 µM)	10 (≈ 16.6 µM)	2 (≈ 3.33 µM)				
COc1ccc(F)cc1[C@H](Cn1c(=O)n([C@@H]2CCCN(C(C)C)C2=O)c(=O)c2c(C)c(-n3nccn3)sc21)OCCO [Compound I-75, 1-((R)-2-(5-fluoro-2-methoxyphenyl)-2-(2-hydroxy-ethoxy)ethyl)-3-((R)-1-isopropyl-2-oxopiperidin-3-yl)-5-methyl-6-(2H-1,2,3-triazol-2-yl)thieno[2,3-d]pyrimidine-2,4(1H,3H)-dione]	10 to 100		D (provided a compound having <25% control of barley powdery mildew)						50 to 69	> 50	2 (≈ 3.33 µM)	> 50	10 (≈ 16.6 µM)	10 (≈ 16.6 µM)	2 (≈ 3.33 µM)	10 (≈ 16.6 µM)	2 (≈ 3.33 µM)	2.1 to 4 (≈ 3.5 to 6.66 µM)	2.1 to 4 (≈ 3.5 to 6.66 µM)	2.1 to 4 (≈ 3.5 to 6.66 µM)	
COc1ccc(F)cc1[C@H](Cn1c(=O)n([C@H]2CCN(C(C)C)C2=O)c(=O)c2c(C)c(-n3nccn3)sc21)OCCO [Compound I-84, 1-((R)-2-(5-fluoro-2-methoxyphenyl)-2-(2-hydroxy-ethoxy)ethyl)-3-((S)-1-isopropyl-2-oxopyrrolidin-3-yl)-5-methyl-6-(2H-1,2,3-triazol-2-yl)thieno[2,3-d]pyrimidine-2.4(1H,3H)-dione]	2 to 10		D (provided a compound having <25% control of barley powdery mildew)						50 to 69	> 50	2 (≈ 3.41 µM)	> 50	2 (≈ 3.41 µM)	10 (≈ 17 µM)	2 (≈ 3.41 µM)	2 (≈ 3.41 µM)	2 (≈ 3.41 µM)	2.1 to 4 (≈ 3.58 to 6.82 µM)	2.1 to 4 (≈ 3.58 to 6.82 µM)	2.1 to 4 (≈ 3.58 to 6.82 µM)	
COc1ccc(F)cc1[C@H](Cn1c(=O)n([C@@H]2CCN(C(C)C)C2=O)c(=O)c2c(C)c(-n3nccn3)sc21)OCCO [Compound I-85, 1-((R)-2-(5-fluoro-2-methoxyphenyl)-2-(2-hydroxy-ethoxy)ethyl)-3-((S)-1-isopropyl-2-oxopyrrolidin-3-yl)-5-methyl-6-(2H-1,2,3-triazol-2-1)thieno[2,3-d]pyrimidine-2,4(1H,3H)-dione]	10 to 100		C (provided a compound having from 25 to 49% control of barley powdery mildew)						70 to 84	> 50	2 (≈ 3.41 µM)	> 50	2 (≈ 3.41 µM)	2 (≈ 3.41 µM)	2 (≈ 3.41 µM)	2 (≈ 3.41 µM)	2 (≈ 3.41 µM)	2.1 to 4 (≈ 3.58 to 6.82 µM)	2.1 to 4 (≈ 3.58 to 6.82 µM)	2.1 to 4 (≈ 3.58 to 6.82 µM)	
